Measured values from patent US12338223B2 (PURISYS LLC, priority 2019, dated 2025).
Converted amounts (≈) assume the structure as drawn.

Tests used:
[1] = Solubility of CBN in crystallization solvents (solvent screen); type: physicochemical; conditions: organic solvent or mixture, RT
CB1 receptor [2] = target: T1, CB1 receptor (Homo sapiens, UniProt P21554); conditions: fold lower affinity than THC; cited from earlier work
CB2 receptor = CB2 receptor (Homo sapiens, UniProt P34972); conditions: fold lower affinity than THC; cited from earlier work
CB2 receptor, sequence (P34972 whole entry): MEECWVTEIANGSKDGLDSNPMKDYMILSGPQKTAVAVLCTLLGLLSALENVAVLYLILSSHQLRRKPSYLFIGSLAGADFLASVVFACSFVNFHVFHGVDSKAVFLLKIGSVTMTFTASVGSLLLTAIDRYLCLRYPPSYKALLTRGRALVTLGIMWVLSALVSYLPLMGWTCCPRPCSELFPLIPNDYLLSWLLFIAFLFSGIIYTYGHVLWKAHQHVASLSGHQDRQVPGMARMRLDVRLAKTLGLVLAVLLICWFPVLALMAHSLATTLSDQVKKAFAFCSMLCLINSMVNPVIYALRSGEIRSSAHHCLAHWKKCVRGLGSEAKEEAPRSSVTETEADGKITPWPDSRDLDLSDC

CB1 receptor [3] = target: T1, CB1 receptor; conditions: cited from earlier work

T1 sequence (P21554 whole entry): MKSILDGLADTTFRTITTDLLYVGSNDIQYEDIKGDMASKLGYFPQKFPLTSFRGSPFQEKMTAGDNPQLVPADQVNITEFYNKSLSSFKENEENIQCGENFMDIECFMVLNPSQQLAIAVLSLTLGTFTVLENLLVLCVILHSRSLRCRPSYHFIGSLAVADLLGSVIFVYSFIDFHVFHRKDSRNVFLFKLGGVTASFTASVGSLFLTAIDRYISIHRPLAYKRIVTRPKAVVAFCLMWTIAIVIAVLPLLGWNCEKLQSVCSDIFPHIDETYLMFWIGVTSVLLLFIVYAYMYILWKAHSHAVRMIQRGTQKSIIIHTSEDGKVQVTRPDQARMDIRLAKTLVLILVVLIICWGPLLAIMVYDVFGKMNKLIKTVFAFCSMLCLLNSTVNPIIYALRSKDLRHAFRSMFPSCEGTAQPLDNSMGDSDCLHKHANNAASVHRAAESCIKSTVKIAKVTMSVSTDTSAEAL

CCCCCc1cc(O)c2c(c1)OC(C)(C)c1ccc(C)cc1-2 [CBN, cannabinol]
solubility ([1]; solvent Iso-Octane): 24.9 mg/mL (≈ 80.2 mM) | solubility ([1]; solvent n-Heptane): 33.4 mg/mL (≈ 108 mM) | Affinity lower relative to THC (CB1 receptor [2]): 7- to 8 fold | Affinity lower relative to THC (CB2 receptor): about 3 fold | Type of activity at CB1 receptors (CB1 receptor [3]): partial agonist
